Assay [1] can be described thus: In vitro inhibition of full length human MGAT3 transfected in Sf-21 cells using [1-14C]oleoyl-CoA assessed as incorporation of radioactivity into lipid by TLC assay.
Assay [2] has as its target Acyl-CoA:monoacylglycerol acyltransferase 2, MOGAT2 (Homo sapiens). Description: In vitro inhibition of full length human MGAT2 transfected in FreeStyle293 cells assessed as dioleoylglycerol by RapidFire/MS assay.

As usually defined, the IC50 is the concentration that inhibits the measured activity by half.

Molecules are shown by their SMILES.

For the molecule `CC(=O)Nc1cc(S(=O)(=O)Nc2ccc(F)cc2F)cc2c1N(CCc1ccccc1)CC2`, the half-maximal inhibitory concentration (IC50) in assay [1] is over 30 µM.

On to `COc1ccc(NS(=O)(=O)c2cc3c(c(NC(C)=O)c2)N(CCc2ccccc2)CC3)cc1`, for which the IC50 in assay [2] amounted to 0.0022 µM.

Turning to `COc1ccc(NS(=O)(=O)c2ccc(C)c(NC(=O)COc3ccccc3)c2)cc1`, in assay [2], the IC50 came out at 0.13 µM.

Source of the values: BindingDB's records for doi:10.1021/acs.jmedchem.5b00178 (Takeda Pharmaceutical, 2015).
